What was measured:
Experiment in all cases: Kinase panel profiling
Type in all cases: biochemical
Settings in all cases: 10 μM ATP
CDK4/cyclin D3 = molecular target: T1, CDK4/cyclin D3 (Homo sapiens, UniProt P11802)
T1 construct: purchased Reaction Biology Corp
Procedure: (§1) Kinase panel profiling was conducted by Reaction Biology Corp. (San Diego, CA, USA). A single dose (1.0 μM) of 6r was tested against 371 recombinant human kinases in the presence of 10 μM ATP.

PKAcb = molecular target: T2, PKAcb (Homo sapiens, UniProt P22694)
T2 construct: purchased Reaction Biology Corp
Procedure: as §1

IKKe/IKBKE = molecular target: T3, IKKe/IKBKE (Homo sapiens, UniProt Q14164)
T3 construct: purchased Reaction Biology Corp
Procedure: as §1

SRPK2 = molecular target: T4, SRPK2 (Homo sapiens, UniProt P78362)
T4 construct: purchased Reaction Biology Corp
Procedure: as §1

NEK6 = molecular target: T5, NEK6 (Homo sapiens, UniProt Q9HC98)
T5 construct: purchased Reaction Biology Corp
Procedure: as §1

CHK2 = molecular target: T6, CHK2 (Homo sapiens, UniProt O96017)
T6 construct: purchased Reaction Biology Corp
Procedure: as §1

MKK7 = molecular target: T7, MKK7 (Homo sapiens, UniProt O14733)
T7 construct: purchased Reaction Biology Corp
Procedure: as §1

KSR1 = molecular target: T8, KSR1 (Homo sapiens, UniProt Q8IVT5)
T8 construct: purchased Reaction Biology Corp
Procedure: as §1

CK1d = molecular target: T9, CK1d (Homo sapiens, UniProt P48730)
T9 construct: purchased Reaction Biology Corp
Procedure: as §1

CDK1/cyclin A = molecular target: T10, CDK1/cyclin A (Homo sapiens, UniProt P06493)
T10 construct: purchased Reaction Biology Corp
Procedure: as §1

PAK5 = molecular target: T11, PAK5 (Homo sapiens, UniProt Q9P286)
T11 construct: purchased Reaction Biology Corp
T11 sequence (Q9P286 whole entry): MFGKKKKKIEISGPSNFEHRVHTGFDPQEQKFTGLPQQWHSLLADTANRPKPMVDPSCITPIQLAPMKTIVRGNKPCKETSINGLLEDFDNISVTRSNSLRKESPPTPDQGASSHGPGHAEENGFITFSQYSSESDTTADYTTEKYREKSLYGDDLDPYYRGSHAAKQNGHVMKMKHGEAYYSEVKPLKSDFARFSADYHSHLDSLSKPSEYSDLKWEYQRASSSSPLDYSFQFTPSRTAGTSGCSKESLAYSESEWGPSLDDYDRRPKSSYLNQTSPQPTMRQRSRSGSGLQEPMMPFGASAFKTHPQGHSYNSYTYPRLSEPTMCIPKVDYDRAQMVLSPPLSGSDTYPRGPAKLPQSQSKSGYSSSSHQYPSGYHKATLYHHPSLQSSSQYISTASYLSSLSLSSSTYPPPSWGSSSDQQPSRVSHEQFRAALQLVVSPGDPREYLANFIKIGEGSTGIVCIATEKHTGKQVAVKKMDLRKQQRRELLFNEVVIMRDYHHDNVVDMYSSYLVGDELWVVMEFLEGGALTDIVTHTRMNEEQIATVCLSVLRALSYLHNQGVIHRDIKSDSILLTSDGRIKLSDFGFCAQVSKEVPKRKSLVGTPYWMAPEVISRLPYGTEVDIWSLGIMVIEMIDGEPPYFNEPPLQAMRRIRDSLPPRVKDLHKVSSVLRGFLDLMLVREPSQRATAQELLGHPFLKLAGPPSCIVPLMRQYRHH
Procedure: as §1

NIM1 = molecular target: T12, NIM1 (Homo sapiens, UniProt Q8IY84)
T12 construct: purchased Reaction Biology Corp
T12 sequence (Q8IY84 whole entry): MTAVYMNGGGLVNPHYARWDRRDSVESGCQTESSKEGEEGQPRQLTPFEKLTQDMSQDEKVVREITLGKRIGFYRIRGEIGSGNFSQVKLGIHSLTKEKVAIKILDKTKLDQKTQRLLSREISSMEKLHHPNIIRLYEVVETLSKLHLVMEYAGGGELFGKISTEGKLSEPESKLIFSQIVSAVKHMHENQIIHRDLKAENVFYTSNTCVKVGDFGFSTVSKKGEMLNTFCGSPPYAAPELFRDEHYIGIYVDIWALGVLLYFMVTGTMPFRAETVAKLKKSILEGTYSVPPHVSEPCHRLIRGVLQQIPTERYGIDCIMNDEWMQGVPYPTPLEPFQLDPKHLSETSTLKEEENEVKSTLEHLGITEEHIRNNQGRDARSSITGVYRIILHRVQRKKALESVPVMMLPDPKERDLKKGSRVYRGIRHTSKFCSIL
Procedure: as §1

ALK6/BMPR1B = molecular target: T13, ALK6/BMPR1B (Homo sapiens, UniProt O00238)
T13 construct: purchased Reaction Biology Corp
Procedure: as §1

EPHA5 = molecular target: T14, EPHA5 (Homo sapiens, UniProt P54756)
T14 construct: purchased Reaction Biology Corp
T14 sequence (P54756 25-1037): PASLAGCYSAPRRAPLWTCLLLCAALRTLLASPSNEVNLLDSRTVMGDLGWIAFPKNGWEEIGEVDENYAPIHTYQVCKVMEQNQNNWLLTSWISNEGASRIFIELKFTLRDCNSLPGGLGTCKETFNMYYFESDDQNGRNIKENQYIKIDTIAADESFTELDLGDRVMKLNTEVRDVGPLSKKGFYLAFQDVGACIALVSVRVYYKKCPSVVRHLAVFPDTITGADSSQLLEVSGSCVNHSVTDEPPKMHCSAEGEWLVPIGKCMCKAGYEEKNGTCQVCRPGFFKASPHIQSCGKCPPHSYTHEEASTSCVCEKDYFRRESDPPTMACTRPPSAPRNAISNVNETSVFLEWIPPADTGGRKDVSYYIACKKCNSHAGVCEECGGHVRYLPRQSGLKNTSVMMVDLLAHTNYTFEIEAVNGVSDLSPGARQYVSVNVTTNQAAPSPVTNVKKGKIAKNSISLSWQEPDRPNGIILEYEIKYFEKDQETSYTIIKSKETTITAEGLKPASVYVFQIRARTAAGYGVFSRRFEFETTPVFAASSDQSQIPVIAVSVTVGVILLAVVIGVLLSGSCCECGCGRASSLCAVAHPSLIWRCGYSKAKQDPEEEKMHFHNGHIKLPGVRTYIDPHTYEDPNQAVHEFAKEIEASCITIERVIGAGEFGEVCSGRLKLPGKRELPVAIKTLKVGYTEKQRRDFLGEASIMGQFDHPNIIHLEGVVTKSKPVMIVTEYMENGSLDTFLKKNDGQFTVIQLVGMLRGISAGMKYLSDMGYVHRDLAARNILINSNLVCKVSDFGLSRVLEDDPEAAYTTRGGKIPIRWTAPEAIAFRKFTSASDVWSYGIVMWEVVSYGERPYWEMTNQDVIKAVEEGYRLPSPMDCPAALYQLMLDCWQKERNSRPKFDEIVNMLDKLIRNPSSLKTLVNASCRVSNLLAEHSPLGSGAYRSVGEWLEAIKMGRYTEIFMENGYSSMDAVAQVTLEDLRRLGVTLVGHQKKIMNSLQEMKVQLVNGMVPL
Procedure: as §1

PKN3/PRK3 = molecular target: T15, PKN3/PRK3 (Homo sapiens, UniProt Q6P5Z2)
T15 construct: purchased Reaction Biology Corp
Procedure: as §1

PKCtheta = molecular target: T16, PKCtheta (Homo sapiens, UniProt Q04759)
T16 construct: purchased Reaction Biology Corp
T16 sequence (Q04759 whole entry): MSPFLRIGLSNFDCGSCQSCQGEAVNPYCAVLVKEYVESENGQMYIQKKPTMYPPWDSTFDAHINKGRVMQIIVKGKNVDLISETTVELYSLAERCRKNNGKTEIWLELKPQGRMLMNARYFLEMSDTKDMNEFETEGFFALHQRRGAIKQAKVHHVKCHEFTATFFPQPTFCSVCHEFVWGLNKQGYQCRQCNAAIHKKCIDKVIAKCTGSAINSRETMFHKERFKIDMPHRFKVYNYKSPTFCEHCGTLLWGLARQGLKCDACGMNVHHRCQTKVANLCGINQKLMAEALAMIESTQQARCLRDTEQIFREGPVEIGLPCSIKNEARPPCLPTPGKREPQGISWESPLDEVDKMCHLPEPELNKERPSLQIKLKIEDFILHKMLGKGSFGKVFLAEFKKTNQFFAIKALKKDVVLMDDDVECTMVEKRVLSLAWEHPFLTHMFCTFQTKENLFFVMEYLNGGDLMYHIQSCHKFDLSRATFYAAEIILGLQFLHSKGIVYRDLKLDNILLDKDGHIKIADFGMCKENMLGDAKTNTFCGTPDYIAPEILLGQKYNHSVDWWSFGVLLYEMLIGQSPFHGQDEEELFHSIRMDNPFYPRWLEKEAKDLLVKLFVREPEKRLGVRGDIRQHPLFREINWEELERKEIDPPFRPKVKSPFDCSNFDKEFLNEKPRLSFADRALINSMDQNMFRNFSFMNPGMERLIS
Procedure: as §1

CLK1 = molecular target: T17, CLK1 (Homo sapiens, UniProt P49759)
T17 construct: purchased Reaction Biology Corp
T17 sequence (P49759 whole entry): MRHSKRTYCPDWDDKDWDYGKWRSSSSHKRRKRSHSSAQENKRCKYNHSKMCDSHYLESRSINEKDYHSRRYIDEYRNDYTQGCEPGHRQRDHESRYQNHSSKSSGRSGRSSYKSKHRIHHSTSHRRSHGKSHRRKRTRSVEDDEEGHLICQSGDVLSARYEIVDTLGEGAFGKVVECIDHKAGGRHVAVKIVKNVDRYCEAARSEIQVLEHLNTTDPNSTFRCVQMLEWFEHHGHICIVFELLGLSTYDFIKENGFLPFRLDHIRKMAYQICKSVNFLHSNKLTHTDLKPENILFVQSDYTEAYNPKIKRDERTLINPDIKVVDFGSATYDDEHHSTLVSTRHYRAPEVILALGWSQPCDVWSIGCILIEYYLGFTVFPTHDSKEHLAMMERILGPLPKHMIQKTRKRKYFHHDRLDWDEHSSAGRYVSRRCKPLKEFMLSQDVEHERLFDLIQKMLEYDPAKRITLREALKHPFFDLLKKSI
Procedure: as §1

FER = molecular target: T18, FER (Homo sapiens, UniProt P16591)
T18 construct: purchased Reaction Biology Corp
Procedure: as §1

MAPKAPK3 = molecular target: T19, MAPKAPK3 (Homo sapiens, UniProt Q16644)
T19 construct: purchased Reaction Biology Corp
Procedure: as §1

ALK5/TGFBR1 = molecular target: T20, ALK5/TGFBR1 (Homo sapiens, UniProt P36897)
T20 construct: purchased Reaction Biology Corp
Procedure: as §1

JAK1 = molecular target: T21, JAK1 (Homo sapiens, UniProt P23458)
T21 construct: purchased Reaction Biology Corp
Procedure: as §1

CDK9/cyclin T1 = molecular target: T22, CDK9/cyclin T1 (Homo sapiens, UniProt P50750)
T22 construct: purchased Reaction Biology Corp
Procedure: as §1

YES/YES1 = molecular target: T23, YES/YES1 (Homo sapiens, UniProt P07947)
T23 construct: purchased Reaction Biology Corp
Procedure: as §1

BTK = molecular target: T24, BTK (Homo sapiens, UniProt Q06187)
T24 construct: purchased Reaction Biology Corp
T24 sequence (Q06187 whole entry): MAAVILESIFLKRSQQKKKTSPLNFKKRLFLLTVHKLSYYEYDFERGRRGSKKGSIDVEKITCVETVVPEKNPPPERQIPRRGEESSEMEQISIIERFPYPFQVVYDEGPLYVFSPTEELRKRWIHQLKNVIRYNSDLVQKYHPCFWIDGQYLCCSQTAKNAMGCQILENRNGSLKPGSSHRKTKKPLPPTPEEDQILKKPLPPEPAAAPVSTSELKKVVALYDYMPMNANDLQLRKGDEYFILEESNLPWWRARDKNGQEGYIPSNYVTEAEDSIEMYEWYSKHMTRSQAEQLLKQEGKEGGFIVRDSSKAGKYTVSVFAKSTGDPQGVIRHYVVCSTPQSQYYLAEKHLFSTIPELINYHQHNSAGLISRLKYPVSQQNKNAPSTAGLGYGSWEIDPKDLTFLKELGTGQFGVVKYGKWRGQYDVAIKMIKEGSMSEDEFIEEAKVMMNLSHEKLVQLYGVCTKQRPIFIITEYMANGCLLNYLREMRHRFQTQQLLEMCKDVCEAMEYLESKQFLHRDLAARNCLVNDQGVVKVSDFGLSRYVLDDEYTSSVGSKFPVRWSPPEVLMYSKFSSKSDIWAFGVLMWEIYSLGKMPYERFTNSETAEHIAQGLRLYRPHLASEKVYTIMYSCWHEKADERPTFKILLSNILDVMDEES
Procedure: as §1

MYO3b = molecular target: T25, MYO3b (Homo sapiens, UniProt Q8WXR4)
T25 construct: purchased Reaction Biology Corp
Procedure: as §1

GRK6 = molecular target: T26, GRK6 (Homo sapiens, UniProt P43250)
T26 construct: purchased Reaction Biology Corp
Procedure: as §1

CDK2/CYCLIN A = molecular target: T27, CDK2/CYCLIN A (Homo sapiens, UniProt P24941)
T27 construct: purchased Reaction Biology Corp
Procedure: as §1

CK1G3 = molecular target: T28, CK1G3 (Homo sapiens, UniProt Q9Y6M4)
T28 construct: purchased Reaction Biology Corp
Procedure: as §1

ERK1 = molecular target: T29, ERK1 (Homo sapiens, UniProt P27361)
T29 construct: purchased Reaction Biology Corp
Procedure: as §1

TLK2 = molecular target: T30, TLK2 (Homo sapiens, UniProt Q86UE8)
T30 construct: purchased Reaction Biology Corp
Procedure: as §1

NEK2 = molecular target: T31, NEK2 (Homo sapiens, UniProt P51955)
T31 construct: purchased Reaction Biology Corp
Procedure: as §1

ULK1 = molecular target: T32, ULK1 (Homo sapiens, UniProt O75385)
T32 construct: purchased Reaction Biology Corp
T32 sequence (O75385 whole entry): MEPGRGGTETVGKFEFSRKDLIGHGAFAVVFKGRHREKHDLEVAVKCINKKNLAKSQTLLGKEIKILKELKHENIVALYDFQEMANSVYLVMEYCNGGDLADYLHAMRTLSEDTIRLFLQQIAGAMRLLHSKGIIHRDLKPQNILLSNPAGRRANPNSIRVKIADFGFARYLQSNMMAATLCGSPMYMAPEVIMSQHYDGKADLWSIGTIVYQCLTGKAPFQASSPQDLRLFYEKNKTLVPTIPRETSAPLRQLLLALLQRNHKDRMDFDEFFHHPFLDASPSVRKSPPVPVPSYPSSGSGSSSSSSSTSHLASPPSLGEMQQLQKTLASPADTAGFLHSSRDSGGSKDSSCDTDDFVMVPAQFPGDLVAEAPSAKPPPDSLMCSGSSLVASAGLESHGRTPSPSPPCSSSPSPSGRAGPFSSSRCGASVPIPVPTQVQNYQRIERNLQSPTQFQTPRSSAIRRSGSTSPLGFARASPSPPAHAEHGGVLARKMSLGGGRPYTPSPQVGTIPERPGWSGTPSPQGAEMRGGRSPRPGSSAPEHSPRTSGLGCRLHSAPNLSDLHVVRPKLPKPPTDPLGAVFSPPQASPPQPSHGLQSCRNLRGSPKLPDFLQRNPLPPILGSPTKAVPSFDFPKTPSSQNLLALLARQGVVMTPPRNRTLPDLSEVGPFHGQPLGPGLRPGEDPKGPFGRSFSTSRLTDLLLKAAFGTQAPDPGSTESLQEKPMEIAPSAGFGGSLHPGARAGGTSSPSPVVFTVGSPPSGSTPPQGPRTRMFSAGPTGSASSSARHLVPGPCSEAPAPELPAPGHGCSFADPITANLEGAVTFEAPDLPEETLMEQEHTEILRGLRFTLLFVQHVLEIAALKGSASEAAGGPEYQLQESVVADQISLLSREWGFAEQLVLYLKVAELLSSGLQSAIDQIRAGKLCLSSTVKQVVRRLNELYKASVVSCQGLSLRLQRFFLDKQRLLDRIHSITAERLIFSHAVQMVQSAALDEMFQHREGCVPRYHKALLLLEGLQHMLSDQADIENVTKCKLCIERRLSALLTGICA
Procedure: as §1

IR = molecular target: T33, IR (Homo sapiens, UniProt P06213)
T33 construct: purchased Reaction Biology Corp
Procedure: as §1

STK32B/YANK2 = molecular target: T34, STK32B/YANK2 (Homo sapiens, UniProt Q9NY57)
T34 construct: purchased Reaction Biology Corp
Procedure: as §1

RIPK2 = molecular target: T35, RIPK2 (Homo sapiens, UniProt O43353)
T35 construct: purchased Reaction Biology Corp
Procedure: as §1

CDC7/DBF4 = molecular target: T36, CDC7/DBF4 (Homo sapiens, UniProt O00311)
T36 construct: purchased Reaction Biology Corp
Procedure: as §1

MST4 = molecular target: T37, MST4 (Homo sapiens, UniProt Q9P289)
T37 construct: purchased Reaction Biology Corp
Procedure: as §1

RSK1 = molecular target: T38, RSK1 (Homo sapiens, UniProt Q15418)
T38 construct: purchased Reaction Biology Corp
Procedure: as §1

CDK17/cyclin Y (PCTK2) = molecular target: T39, CDK17/cyclin Y (PCTK2) (Homo sapiens, UniProt Q00537)
T39 construct: purchased Reaction Biology Corp
Procedure: as §1

EPHB3 = molecular target: T40, EPHB3 (Homo sapiens, UniProt P54753)
T40 construct: purchased Reaction Biology Corp
Procedure: as §1

DAPK2 = molecular target: T41, DAPK2 (Homo sapiens, UniProt Q9UIK4)
T41 construct: purchased Reaction Biology Corp
Procedure: as §1

STK32C/YANK3 = molecular target: T42, STK32C/YANK3 (Homo sapiens, UniProt Q86UX6)
T42 construct: purchased Reaction Biology Corp
Procedure: as §1

Compound `Cc1ccc(NC(=O)c2ccc(CN3CCN(C)CC3)c(C(F)(F)F)c2)cc1-c1cnc2sc(N)nc2c1` [6r] has an inhibition at 1 µM (CDK4/cyclin D3) of 9.8%, an inhibition at 1 µM (PKAcb) of 0% and an inhibition at 1 µM (IKKe/IKBKE) of 2%. It also gave an inhibition at 1 µM (SRPK2) of 9%, an inhibition at 1 µM (NEK6) of 1% and an inhibition at 1 µM (CHK2) of 4.8%. For the same compound, the inhibition at 1 µM (MKK7) was 7.3%, the inhibition at 1 µM (KSR1) was 5.5% and the inhibition at 1 µM (CK1d) was 27.3%. The inhibition at 1 µM (CDK1/cyclin A) was 3.8%, the inhibition at 1 µM (PAK5) was 5% and the inhibition at 1 µM (NIM1) was 1.3%. The inhibition at 1 µM (ALK6/BMPR1B) was 15%, the inhibition at 1 µM (EPHA5) was 78.5% and the inhibition at 1 µM (PKN3/PRK3) was 8.6%. The inhibition at 1 µM (PKCtheta) was 6.9%, the inhibition at 1 µM (CLK1) was 0% and the inhibition at 1 µM (FER) was 0%. For the same compound, the inhibition at 1 µM (MAPKAPK3) was 10.7%, the inhibition at 1 µM (ALK5/TGFBR1) was 0% and the inhibition at 1 µM (JAK1) was 74.9%. The inhibition at 1 µM (CDK9/cyclin T1) was 0%, the inhibition at 1 µM (YES/YES1) was 77% and the inhibition at 1 µM (BTK) was 4.7%. It also gave an inhibition at 1 µM (MYO3b) of 0%, an inhibition at 1 µM (GRK6) of 0% and an inhibition at 1 µM (CDK2/CYCLIN A) of 0%. It also gave an inhibition at 1 µM (CK1G3) of 32%, an inhibition at 1 µM (ERK1) of 11.7% and an inhibition at 1 µM (TLK2) of 0%. For the same compound, the inhibition at 1 µM (NEK2) was 0%, the inhibition at 1 µM (ULK1) was 3.7% and the inhibition at 1 µM (IR) was 1.9%. The inhibition at 1 µM (STK32B/YANK2) was 0%, the inhibition at 1 µM (RIPK2) was 20.6% and the inhibition at 1 µM (CDC7/DBF4) was 0.8%. For the same compound, the inhibition at 1 µM (MST4) was 15.7%, the inhibition at 1 µM (RSK1) was 23.4% and the inhibition at 1 µM (CDK17/cyclin Y (PCTK2)) was 3.9%. The inhibition at 1 µM (EPHB3) was 42.5%, the inhibition at 1 µM (DAPK2) was 0.3% and the inhibition at 1 µM (STK32C/YANK3) was 0.6%.

— article PMC9817970 (Cancers, 2022)
